From patent US20250197406A1, “INDAZOLES AS HEMATOPOIETIC PROGENITOR KINASE 1 (HPK1) INHIBITORS AND METHODS FOR USING SAME” (1ST Biotherapeutics, Inc., priority 2022, published 2025)
Counter-ions that a name gives are not always drawn.

Each compound was assayed against recombinant human HPK1 (Homo sapiens (Human), UniProt Q92918) (assay: HPK1 kinase assay (Promega ADP-Glo kinase assay)). Details: In vitro activity against HPK1, 5 ng HPK1, MBP substrate, ATP 25 μM, 30° C. 40 minutes.
Type: biochemical
Outline: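 IC50 was derived from percent inhibition across a range of compound concentrations. Recombinant human HPK1 (5 ng) phosphorylated MBP for 40 min at 30 °C in Tris buffer pH 7.5 with 20 mM MgCl2, with ATP added as a 25 µM solution and 0.5% DMSO. ADP formed was read by ADP-Glo luminescence.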

recombinant human HPK1, sequence (Q92918 whole entry): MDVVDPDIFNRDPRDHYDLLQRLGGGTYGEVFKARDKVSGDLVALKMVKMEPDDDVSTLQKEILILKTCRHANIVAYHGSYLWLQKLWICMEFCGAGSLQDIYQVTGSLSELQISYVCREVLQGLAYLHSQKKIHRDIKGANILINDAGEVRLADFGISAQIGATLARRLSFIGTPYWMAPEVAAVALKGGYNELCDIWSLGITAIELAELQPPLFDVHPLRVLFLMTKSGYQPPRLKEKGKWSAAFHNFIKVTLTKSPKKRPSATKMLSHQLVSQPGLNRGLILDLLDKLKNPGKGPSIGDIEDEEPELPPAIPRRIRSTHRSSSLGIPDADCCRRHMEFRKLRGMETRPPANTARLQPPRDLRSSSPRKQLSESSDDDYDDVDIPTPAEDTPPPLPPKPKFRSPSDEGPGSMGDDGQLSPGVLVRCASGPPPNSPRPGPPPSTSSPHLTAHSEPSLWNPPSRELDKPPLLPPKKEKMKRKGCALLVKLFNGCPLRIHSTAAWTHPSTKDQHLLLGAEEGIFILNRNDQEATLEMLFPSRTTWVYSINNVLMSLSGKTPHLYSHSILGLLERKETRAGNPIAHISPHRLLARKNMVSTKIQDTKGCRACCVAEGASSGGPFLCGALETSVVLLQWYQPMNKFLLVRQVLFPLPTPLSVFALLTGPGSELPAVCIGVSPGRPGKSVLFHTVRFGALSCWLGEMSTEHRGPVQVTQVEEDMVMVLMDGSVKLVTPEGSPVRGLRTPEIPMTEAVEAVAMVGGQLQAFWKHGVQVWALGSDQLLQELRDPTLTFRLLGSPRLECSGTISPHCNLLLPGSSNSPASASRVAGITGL

SMILES	IC50 [nM]
CC(C)Nc1c(F)c(Cl)c(-c2cn3cc(NC(=O)CC4COC4)nc3cn2)c2cn[nH]c12 [Example 116, N-(6-(5-chloro-6-fluoro-7-(isopropylamino)-1H-indazol-4-yl)imidazo[1,2-a]pyrazin-2-yl)-2-(oxetan-3-yl)acetamide]	< 100
CC(C)Nc1c(F)c(Cl)c(-c2cn3cc(NC(=O)C4CCN(C)CC4)nc3cn2)c2cn[nH]c12 [Example 123, N-(6-(5-chloro-6-fluoro-7-(isopropylamino)-1H-indazol-4-yl)imidazo[1,2-a]pyrazin-2-yl)-1-methylpiperidine-4-carboxamide]	< 100
CN(C)c1c(F)c(C(F)(F)F)c(-c2cn3cc(NC(=O)[C@H]4C[C@H]4F)nc3cn2)c2cn[nH]c12 [Example 27, (1R,2R)-N-(6-(7-(dimethylamino)-6-fluoro-5-(trifluoromethyl)-1H-indazol-4-yl)imidazo[1,2-a]pyrazin-2-yl)-2-fluorocyclopropane-1-carboxamide]	< 100
CC(C)Nc1c(F)c(Cl)c(-c2cn3cc(NC(=O)C(C)C)nc3cn2)c2cn[nH]c12 [Example 81, N-(6-(5-chloro-6-fluoro-7-(isopropylamino)-1H-indazol-4-yl)imidazo[1,2-a]pyrazin-2-yl)isobutyramide]	< 100
CC(C)Nc1c(F)c(Cl)c(-c2cn3cc(NC4CCOC4)nc3cn2)c2cn[nH]c12 (centres unmarked) [Example 101, 6-(5-chloro-6-fluoro-7-(isopropylamino)-1H-indazol-4-yl)-N-(tetrahydrofuran-3-yl)imidazo[1,2-a]pyrazin-2-amine]	101 to 500
CC(C)Nc1c(F)c(Cl)c(-c2cn3cc(NC(=O)C(C)(C)C)nc3cn2)c2cn[nH]c12 [Example 82, N-(6-(5-chloro-6-fluoro-7-(isopropylamino)-1H-indazol-4-yl)imidazo[1,2-a]pyrazin-2-yl)pivalamide]	101 to 500
CC(C)Nc1c(F)c(Cl)c(-c2cn3cc(NC(=O)c4ccccn4)nc3cn2)c2cn[nH]c12 [Example 58, N-(6-(5-chloro-6-fluoro-7-(isopropylamino)-1H-indazol-4-yl)imidazo[1,2-a]pyrazin-2-yl)picolinamide]	101 to 500
CC(C)N(c1c(F)c(Cl)c(-c2cn3cc(NC(=O)[C@@H]4C[C@@H]4F)nc3cn2)c2cn[nH]c12)C1OC(C(=O)O)C(O)C(O)C1O (stereo partly drawn) [Example 14, 6-((5-chloro-6-fluoro-4-(2-((1S,2S)-2-fluorocyclopropane-1-carboxamido)imidazo[1,2-a]pyrazin-6-yl)-1H-indazol-7-yl)(isopropyl)amino)-3,4,5-trihydroxytetrahydro-2H-pyran-2-carboxylic acid]	< 100
CC(=O)Nc1cn2cc(-c3c(Cl)c(F)c([C@H](C)N[S@@+]([O-])C(C)(C)C)c4[nH]ncc34)ncc2n1 [Example 134, N-(6-(7-((S)-1-(((S)-tert-butylsulfinyl)amino)ethyl)-5-chloro-6-fluoro-1H-indazol-4-yl)imidazo[1,2-a]pyrazin-2-yl)acetamide]	101 to 500
CCOC(C)c1c(F)c(C)c(-c2cn3cc(NC(=O)[C@@H]4C[C@@H]4F)nc3cn2)c2cn[nH]c12 (stereo partly drawn) [Example 3, (1S,2S)-N-(6-(7-(1-ethoxyethyl)-6-fluoro-5-methyl-1H-indazol-4-yl)imidazo[1,2-a]pyrazin-2-yl)-2-fluorocyclopropane-1-carboxamide]	101 to 500
CC(CN)c1c(F)c(C(F)(F)F)c(-c2cn3cc(NC(=O)[C@@H]4C[C@@H]4F)nc3cn2)c2cn[nH]c12 (stereo partly drawn) [Example 98, (1S,2S)-N-(6-(7-(1-aminopropan-2-yl)-6-fluoro-5-(trifluoromethyl)-1H-indazol-4-yl)imidazo[1,2-a]pyrazin-2-yl)-2-fluorocyclopropane-1-carboxamide formate]	< 100
CCC(=O)Nc1cn2cc(-c3c(C(F)F)c(F)c(NC(C)C)c4[nH]ncc34)ncc2n1 [Example 155, N-(6-(5-(difluoromethyl)-6-fluoro-7-(isopropylamino)-1H-indazol-4-yl)imidazo[1,2-a]pyrazin-2-yl)propionamide]	< 100
CCC(=O)Nc1cn2cc(-c3c(OC)c(F)c(NC(C)C)c4[nH]ncc34)ncc2n1 [Example 162, N-(6-(6-fluoro-7-(isopropylamino)-5-methoxy-1H-indazol-4-yl)imidazo[1,2-a]pyrazin-2-yl)propionamide]	< 100
CC(=O)Nc1cn2cc(-c3c(Cl)c(F)c(CN4CC(O)C4)c4[nH]ncc34)ncc2n1 [Example 150, N-(6-(5-chloro-6-fluoro-7-((3-hydroxyazetidin-1-yl)methyl)-1H-indazol-4-yl)imidazo[1,2-a]pyrazin-2-yl)acetamide]	501 to 1000
Cc1c(F)c(C(NC(=O)C(F)(F)F)C2CC2)c2[nH]ncc2c1-c1cn2cc(NC(=O)[C@@H]3C[C@@H]3F)nc2cn1 (stereo partly drawn) [Example 107, (1S,2S)-N-(6-(7-(cyclopropyl(2,2,2-trifluoroacetamido)methyl)-6-fluoro-5-methyl-1H-indazol-4-yl)imidazo[1,2-a]pyrazin-2-yl)-2-fluorocyclopropane-1-carboxamide]	< 100
Cc1c(F)c(C(C)N)c2[nH]ncc2c1-c1cn2cc(NC(=O)[C@@H]3C[C@@H]3F)nc2cn1 (stereo partly drawn) [Example 25, (1S,2S)-N-(6-(7-(1-aminoethyl)-6-fluoro-5-methyl-1H-indazol-4-yl)imidazo[1,2-a]pyrazin-2-yl)-2-fluorocyclopropane-1-carboxamide]	101 to 500
CC(N)c1c(F)c(C(F)(F)F)c(-c2cn3cc(NC(=O)[C@@H]4C[C@@H]4F)nc3cn2)c2cn[nH]c12 (stereo partly drawn) [Example 45, (1S,2S)-N-(6-(7-(1-aminoethyl)-6-fluoro-5-(trifluoromethyl)-1H-indazol-4-yl)imidazo[1,2-a]pyrazin-2-yl)-2-fluorocyclopropane-1-carboxamide]	501 to 1000
CC(C)Nc1c(F)c(Cl)c(-c2cn3cc(NC(=O)C4(N)CC4)nc3cn2)c2cn[nH]c12 [Example 78, 1-amino-N-(6-(5-chloro-6-fluoro-7-(isopropylamino)-1H-indazol-4-yl)imidazo[1,2-a]pyrazin-2-yl)cyclopropane-1-carboxamide]	< 100
Cc1c(F)c(C2CCOC2)c2[nH]ncc2c1-c1cn2cc(NC(=O)[C@@H]3C[C@@H]3F)nc2cn1 (stereo partly drawn) [Example 6, (1S,2S)-2-fluoro-N-(6-(6-fluoro-5-methyl-7-(tetrahydrofuran-3-yl)-1H-indazol-4-yl)imidazo[1,2-a]pyrazin-2-yl)cyclopropane-1-carboxamide]	< 100
CC(N)c1c(F)c(C(F)F)c(-c2cn3cc(NC(=O)[C@@H]4C[C@@H]4F)nc3cn2)c2cn[nH]c12 (stereo partly drawn) [Example 55, (1S,2S)-N-(6-(7-(1-aminoethyl)-5-(difluoromethyl)-6-fluoro-1H-indazol-4-yl)imidazo[1,2-a]pyrazin-2-yl)-2-fluorocyclopropane-1-carboxamide]	101 to 500
CC(C)Nc1c(F)c(Cl)c(-c2cn3cc(NC(=O)C4CCNC4)nc3cn2)c2cn[nH]c12 (centres unmarked) [Example 74, N-(6-(5-chloro-6-fluoro-7-(isopropylamino)-1H-indazol-4-yl)imidazo[1,2-a]pyrazin-2-yl)pyrrolidine-3-carboxamide]	< 100
CC(C)Nc1c(F)c(Cl)c(-c2cn3cc(NC(=O)C4COC4)nc3cn2)c2cn[nH]c12 [Example 131, N-(6-(5-chloro-6-fluoro-7-(isopropylamino)-1H-indazol-4-yl)imidazo[1,2-a]pyrazin-2-yl)oxetane-3-carboxamide]	< 100
C[C@H](NC(=O)C(F)(F)F)c1c(F)c(Cl)c(-c2cn3cc(NC(=O)[C@@H]4C[C@@H]4F)nc3cn2)c2cn[nH]c12 [Example 146, (1S,2S)-N-(6-(5-chloro-6-fluoro-7-((S)-1-(2,2,2-trifluoroacetamido)ethyl)-1H-indazol-4-yl)imidazo[1,2-a]pyrazin-2-yl)-2-fluorocyclopropane-1-carboxamide]	< 100
Cc1c(F)c(NC(C)C)c2[nH]ncc2c1-c1cn2cc(NC(=O)[C@@H]3C[C@H]3F)nc2cn1 [Example 34, (1S,2R)-2-fluoro-N-(6-(6-fluoro-7-(isopropylamino)-5-methyl-1H-indazol-4-yl)imidazo[1,2-a]pyrazin-2-yl)cyclopropane-1-carboxamide]	< 100
CC(C)Nc1c(F)c(Cl)c(-c2cn3cc(NC(=O)C4CC4)nc3cn2)c2cn[nH]c12 [Example 46, N-(6-(5-chloro-6-fluoro-7-(isopropylamino)-1H-indazol-4-yl)imidazo[1,2-a]pyrazin-2-yl)cyclopropanecarboxamide]	< 100
O=C(Nc1cn2cc(-c3c(C(F)(F)F)c(F)c(C(O)C4CC4)c4[nH]ncc34)ncc2n1)[C@@H]1C[C@@H]1CO (stereo partly drawn) [Example 118, (1R,2S)-N-(6-(7-(cyclopropyl(hydroxy)methyl)-6-fluoro-5-(trifluoromethyl)-1H-indazol-4-yl)imidazo[1,2-a]pyrazin-2-yl)-2-(hydroxymethyl)cyclopropane-1-carboxamide]	< 100
CC(C)Nc1c(F)c(Cl)c(-c2cn3cc(NC(=O)Cc4cccnc4)nc3cn2)c2cn[nH]c12 [Example 89, N-(6-(5-chloro-6-fluoro-7-(isopropylamino)-1H-indazol-4-yl)imidazo[1,2-a]pyrazin-2-yl)-2-(pyridin-3-yl)acetamide]	< 100
Cc1c(F)c(NC(C)C)c2[nH]ncc2c1-c1cn2cc(NC(=O)Cc3cccnc3)nc2cn1 [Example 93, N-(6-(6-fluoro-7-(isopropylamino)-5-methyl-1H-indazol-4-yl)imidazo[1,2-a]pyrazin-2-yl)-2-(pyridin-3-yl)acetamide]	< 100
CC(CO)c1c(F)c(C(F)(F)F)c(-c2cn3cc(NC(=O)[C@@H]4C[C@@H]4F)nc3cn2)c2cn[nH]c12 (stereo partly drawn) [Example 85, (1S,2S)-2-fluoro-N-(6-(6-fluoro-7-(1-hydroxypropan-2-yl)-5-(trifluoromethyl)-1H-indazol-4-yl)imidazo[1,2-a]pyrazin-2-yl)cyclopropane-1-carboxamide]	< 100
